Test results published in patent US20220213436A1, “BRAIN ORGANOID MACHINE INTERFACE” (The Regents of the University of California, priority 2019, published 2022).

Tested on: cortical organoids
Experiment: Pharmacological manipulation of cortical organoid network activity recorded by multi-electrode array (MEA)
Type: cell-based, human
Conditions: for number of bursts / burst activity / synchronous activity / synchrony indexes: 8-month-old organoids, recording 15 min after addition, 20 μM AP5, 20 μM CNQX, 50 μM muscimol, 25 μM baclofen, 10 μM bicuculline

Structure (SMILES)	number of bursts / burst activity	synchronous activity / synchrony indexes	neuronal electrical activity
NC(CCCP(=O)(O)O)C(=O)O (stereo not drawn) [AP5]	significantly reducing	extinction	–
N#Cc1cc2[nH]c(=O)c(=O)[nH]c2cc1[N+](=O)[O-] [CNQX]	significantly reducing	extinction	–
NCC(CC(=O)O)c1ccc(Cl)cc1 (stereo not drawn) [baclofen]	significantly reducing	extinction	–
NCc1cc(=O)[nH]o1 [muscimol]	significantly reducing	extinction	–
NC1=N[C@H](O)[C@H]2[C@H]3O[C@]4(O)O[C@@H]([C@@H](O)[C@@]2(N1)[C@@H]4O)[C@]3(O)CO [tetrodotoxin]	–	–	blocked
